For test [1], the target named is Prostaglandin G/H synthase 2 (Homo sapiens) (UniProt P35354). Put plainly: COX-2 Eurofins SafetyScreen44 (BI). The note with it: Compound concentration 10.0 uM.
Test [2] has as its target Cannabinoid receptor 1 (Homo sapiens) (UniProt P21554). Kind of test: CB1(HU)_AGON Eurofins SafetyScreen44 (BI). The note with it: filed as agonist, Compound concentration 10.0 uM.
In test [3] the target is 5-hydroxytryptamine receptor 1B (Homo sapiens) (UniProt P28222). Put plainly: 5HT1B(H) Eurofins SafetyScreen44 (BI). Particulars: filed as antagonist, Compound concentration 10.0 uM.
The target in test [4] is Kappa-type opioid receptor (Homo sapiens) (UniProt P41145). Put plainly: KAPPA(KOP)_HU Eurofins SafetyScreen44 (BI). Particulars: Compound concentration 10.0 uM.
Test [5] has as its target 5-hydroxytryptamine receptor 2C (Homo sapiens) (UniProt P28335). The note with it: Compound concentration 10.0 uM.
Test [6] addresses Cannabinoid receptor 1 (Homo sapiens) (UniProt P21554). Put plainly: CB1/CENTR/H Eurofins SafetyScreen44 (BI). The note with it: Compound concentration 10.0 uM.
In test [7] the target is Sigma non-opioid intracellular receptor 1 (Homo sapiens) (UniProt Q99720). Particulars: Compound concentration 10.0 uM.
Test [8] concerns the target Kappa-type opioid receptor (Homo sapiens) (UniProt P41145). The note with it: Compound concentration 10.0 uM.
Test [9] deals with T1, Muscarinic acetylcholine receptor M2 (Homo sapiens) (UniProt P08172).
T1 sequence (whole entry): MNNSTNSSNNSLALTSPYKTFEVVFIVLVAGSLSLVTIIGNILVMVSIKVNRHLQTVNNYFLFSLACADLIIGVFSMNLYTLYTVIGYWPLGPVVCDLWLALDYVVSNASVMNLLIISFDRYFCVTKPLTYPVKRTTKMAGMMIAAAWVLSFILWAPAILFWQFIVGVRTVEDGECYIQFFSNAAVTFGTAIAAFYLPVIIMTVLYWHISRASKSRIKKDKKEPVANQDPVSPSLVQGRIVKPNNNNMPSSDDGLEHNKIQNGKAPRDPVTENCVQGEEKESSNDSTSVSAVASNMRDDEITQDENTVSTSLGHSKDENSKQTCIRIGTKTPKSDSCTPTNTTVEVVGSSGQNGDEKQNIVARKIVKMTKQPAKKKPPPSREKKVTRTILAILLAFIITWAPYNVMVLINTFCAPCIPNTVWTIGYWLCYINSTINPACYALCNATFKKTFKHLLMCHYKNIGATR
The note with it: Compound concentration 10.0 uM.

Test [10] deals with 5-hydroxytryptamine receptor 2A (Homo sapiens) (UniProt P28223). Particulars: Compound concentration 10.0 uM.
Test [11] concerns the target T1, Muscarinic acetylcholine receptor M2 (Homo sapiens). Kind of test: M2(H)ANTAG Eurofins SafetyScreen44 (BI). Particulars: filed as antagonist, Compound concentration 10.0 uM.
Test [12] deals with Muscarinic acetylcholine receptor M4 (Homo sapiens) (UniProt P08173). The note with it: Compound concentration 10.0 uM.
In test [13] the target is T2, 5-hydroxytryptamine receptor 3A (Homo sapiens) (UniProt P46098).
T2 sequence (whole entry): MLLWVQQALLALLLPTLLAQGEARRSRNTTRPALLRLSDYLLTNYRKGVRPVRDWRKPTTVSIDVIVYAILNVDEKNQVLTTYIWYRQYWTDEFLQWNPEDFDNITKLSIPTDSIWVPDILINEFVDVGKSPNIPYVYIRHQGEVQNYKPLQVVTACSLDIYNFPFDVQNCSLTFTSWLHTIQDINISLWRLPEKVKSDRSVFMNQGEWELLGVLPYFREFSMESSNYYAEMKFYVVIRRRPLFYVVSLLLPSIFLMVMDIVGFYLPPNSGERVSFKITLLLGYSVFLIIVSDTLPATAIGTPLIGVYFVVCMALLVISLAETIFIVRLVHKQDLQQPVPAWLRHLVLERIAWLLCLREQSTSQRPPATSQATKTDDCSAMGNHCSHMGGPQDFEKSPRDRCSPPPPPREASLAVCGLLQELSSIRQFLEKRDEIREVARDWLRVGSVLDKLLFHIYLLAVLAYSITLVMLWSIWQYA
Particulars: Compound concentration 10.0 uM.

For test [14], the target named is Sodium-dependent noradrenaline transporter (Homo sapiens) (UniProt P23975). The note with it: Compound concentration 10.0 uM.
Test [15] deals with T3, Alpha-1A adrenergic receptor (Homo sapiens) (UniProt P35348).
T3 sequence (whole entry): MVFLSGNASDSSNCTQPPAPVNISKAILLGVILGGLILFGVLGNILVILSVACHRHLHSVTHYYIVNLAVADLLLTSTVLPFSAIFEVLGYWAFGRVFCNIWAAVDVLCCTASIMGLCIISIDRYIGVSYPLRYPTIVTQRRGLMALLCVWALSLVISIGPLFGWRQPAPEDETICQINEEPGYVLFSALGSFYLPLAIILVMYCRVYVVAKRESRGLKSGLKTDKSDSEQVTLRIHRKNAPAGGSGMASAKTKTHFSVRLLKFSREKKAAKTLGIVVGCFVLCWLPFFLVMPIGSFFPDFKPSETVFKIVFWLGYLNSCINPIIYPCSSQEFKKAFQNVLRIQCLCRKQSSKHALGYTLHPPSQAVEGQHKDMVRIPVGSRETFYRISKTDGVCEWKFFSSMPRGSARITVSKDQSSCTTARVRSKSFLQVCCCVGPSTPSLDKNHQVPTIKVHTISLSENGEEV
Particulars: Compound concentration 10.0 uM.

The target of test [16] is Sigma intracellular receptor 2 (Homo sapiens) (UniProt Q5BJF2). Particulars: Compound concentration 10.0 uM.
The target of test [17] is 5-hydroxytryptamine receptor 1B (Rattus norvegicus) (UniProt P28564). Put plainly: 5HT1B/R Eurofins SafetyScreen44 (BI). The note with it: Compound concentration 10.0 uM.
In test [18] the target is D(4) dopamine receptor (Homo sapiens) (UniProt P21917). Particulars: Compound concentration 10.0 uM.
Test [19] has as its target T3, Alpha-1A adrenergic receptor (Homo sapiens). Kind of test: ALPHA1A(H)AGON Eurofins SafetyScreen44 (BI). The note with it: filed as agonist, Compound concentration 10.0 uM.
A further test deals with Histamine H3 receptor (Homo sapiens, UniProt Q9Y5N1). Kind of test: GPCRScan assay: inhibition of H3. Also noted: radioligand conc. used [nm] 0.5 – 1.0, parental cells HEK Flp-In.
In test [20] the target is Beta-2 adrenergic receptor (Homo sapiens) (UniProt P07550). The note with it: Compound concentration 10.0 uM.
Test [21] concerns the target D(2) dopamine receptor (Homo sapiens) (UniProt P14416). Particulars: Compound concentration 10.0 uM.
Test [22] concerns the target Mu-type opioid receptor (Homo sapiens) (UniProt P35372). The note with it: Compound concentration 10.0 uM.
In test [23] the target is Delta-type opioid receptor (Homo sapiens) (UniProt P41143). Particulars: Compound concentration 10.0 uM.
Test [24] deals with D(3) dopamine receptor (Homo sapiens) (UniProt P35462). Particulars: Compound concentration 10.0 uM.
The target in test [25] is 5-hydroxytryptamine receptor 2B (Homo sapiens) (UniProt P41595). The note with it: Compound concentration 10.0 uM.
For test [26], the target named is Muscarinic acetylcholine receptor M3 (Homo sapiens) (UniProt P20309). Put plainly: M3(H)ANTAG Eurofins SafetyScreen44 (BI). The note with it: filed as antagonist, Compound concentration 10.0 uM.

Kappa-type opioid receptor (Homo sapiens), sequence (P41145 whole entry): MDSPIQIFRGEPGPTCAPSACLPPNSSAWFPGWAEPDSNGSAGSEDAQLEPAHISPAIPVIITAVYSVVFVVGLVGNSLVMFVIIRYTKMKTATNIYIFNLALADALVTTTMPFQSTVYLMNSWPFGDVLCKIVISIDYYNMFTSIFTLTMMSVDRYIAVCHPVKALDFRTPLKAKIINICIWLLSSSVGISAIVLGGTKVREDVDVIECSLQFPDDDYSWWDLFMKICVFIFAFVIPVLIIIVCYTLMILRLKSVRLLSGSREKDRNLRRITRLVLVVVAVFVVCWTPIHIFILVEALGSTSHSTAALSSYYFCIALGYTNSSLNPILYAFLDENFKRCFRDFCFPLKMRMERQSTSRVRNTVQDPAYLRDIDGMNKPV
Histamine H3 receptor, sequence (Q9Y5N1 whole entry): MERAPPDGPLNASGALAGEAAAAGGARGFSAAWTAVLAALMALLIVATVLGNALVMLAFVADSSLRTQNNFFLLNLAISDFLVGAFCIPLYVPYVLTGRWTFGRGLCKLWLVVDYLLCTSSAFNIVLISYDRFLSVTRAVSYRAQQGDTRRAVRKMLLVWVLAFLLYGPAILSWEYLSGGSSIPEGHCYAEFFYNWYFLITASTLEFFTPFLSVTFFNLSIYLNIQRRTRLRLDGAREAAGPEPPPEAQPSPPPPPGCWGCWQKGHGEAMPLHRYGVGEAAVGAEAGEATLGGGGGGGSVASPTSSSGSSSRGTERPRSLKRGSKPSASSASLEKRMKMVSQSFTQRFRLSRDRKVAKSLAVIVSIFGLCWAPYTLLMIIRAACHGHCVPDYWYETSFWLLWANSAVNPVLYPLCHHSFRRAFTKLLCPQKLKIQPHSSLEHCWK
5-hydroxytryptamine receptor 2C (Homo sapiens), sequence (P28335 whole entry): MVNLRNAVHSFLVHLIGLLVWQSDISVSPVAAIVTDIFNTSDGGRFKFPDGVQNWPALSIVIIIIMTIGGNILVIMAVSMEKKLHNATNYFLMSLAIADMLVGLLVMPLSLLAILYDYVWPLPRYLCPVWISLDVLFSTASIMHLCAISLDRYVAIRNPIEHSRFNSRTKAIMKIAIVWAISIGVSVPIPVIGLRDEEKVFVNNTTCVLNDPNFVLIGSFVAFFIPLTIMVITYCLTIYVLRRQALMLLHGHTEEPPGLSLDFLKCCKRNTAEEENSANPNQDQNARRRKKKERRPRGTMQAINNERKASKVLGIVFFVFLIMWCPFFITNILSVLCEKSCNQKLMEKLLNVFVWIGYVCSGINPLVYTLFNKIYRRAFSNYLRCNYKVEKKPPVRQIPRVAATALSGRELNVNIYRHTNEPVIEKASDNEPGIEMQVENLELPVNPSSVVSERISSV
Sigma intracellular receptor 2 (Homo sapiens), sequence (Q5BJF2 whole entry): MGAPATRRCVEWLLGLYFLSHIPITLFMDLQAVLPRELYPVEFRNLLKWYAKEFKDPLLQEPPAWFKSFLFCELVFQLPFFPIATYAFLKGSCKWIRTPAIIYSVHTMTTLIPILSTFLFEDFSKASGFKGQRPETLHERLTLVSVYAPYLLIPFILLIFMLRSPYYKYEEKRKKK
D(2) dopamine receptor (Homo sapiens), sequence (P14416 whole entry): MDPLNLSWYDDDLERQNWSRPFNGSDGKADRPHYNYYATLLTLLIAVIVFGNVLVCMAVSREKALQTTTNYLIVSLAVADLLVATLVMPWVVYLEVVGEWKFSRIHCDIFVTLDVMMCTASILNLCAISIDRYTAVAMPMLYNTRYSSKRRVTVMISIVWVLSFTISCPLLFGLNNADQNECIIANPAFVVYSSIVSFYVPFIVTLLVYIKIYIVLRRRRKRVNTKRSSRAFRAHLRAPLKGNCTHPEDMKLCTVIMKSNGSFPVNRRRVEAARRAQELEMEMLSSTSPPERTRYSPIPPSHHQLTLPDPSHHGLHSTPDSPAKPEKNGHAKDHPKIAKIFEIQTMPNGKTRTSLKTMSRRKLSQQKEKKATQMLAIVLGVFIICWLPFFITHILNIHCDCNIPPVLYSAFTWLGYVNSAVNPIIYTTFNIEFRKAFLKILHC
5-hydroxytryptamine receptor 2B (Homo sapiens), sequence (P41595 whole entry): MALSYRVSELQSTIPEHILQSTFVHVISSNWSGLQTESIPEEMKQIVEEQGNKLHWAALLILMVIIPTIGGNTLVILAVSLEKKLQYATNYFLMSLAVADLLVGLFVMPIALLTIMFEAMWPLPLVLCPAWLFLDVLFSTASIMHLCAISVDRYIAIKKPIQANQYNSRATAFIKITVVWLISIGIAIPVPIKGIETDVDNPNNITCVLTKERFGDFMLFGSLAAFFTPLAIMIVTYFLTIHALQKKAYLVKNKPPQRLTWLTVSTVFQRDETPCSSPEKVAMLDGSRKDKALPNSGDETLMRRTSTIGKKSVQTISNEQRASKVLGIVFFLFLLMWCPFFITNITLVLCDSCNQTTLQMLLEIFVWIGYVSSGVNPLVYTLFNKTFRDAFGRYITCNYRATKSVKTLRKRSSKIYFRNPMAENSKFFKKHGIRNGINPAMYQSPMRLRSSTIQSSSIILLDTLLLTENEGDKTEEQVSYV
D(3) dopamine receptor (Homo sapiens), sequence (P35462 whole entry): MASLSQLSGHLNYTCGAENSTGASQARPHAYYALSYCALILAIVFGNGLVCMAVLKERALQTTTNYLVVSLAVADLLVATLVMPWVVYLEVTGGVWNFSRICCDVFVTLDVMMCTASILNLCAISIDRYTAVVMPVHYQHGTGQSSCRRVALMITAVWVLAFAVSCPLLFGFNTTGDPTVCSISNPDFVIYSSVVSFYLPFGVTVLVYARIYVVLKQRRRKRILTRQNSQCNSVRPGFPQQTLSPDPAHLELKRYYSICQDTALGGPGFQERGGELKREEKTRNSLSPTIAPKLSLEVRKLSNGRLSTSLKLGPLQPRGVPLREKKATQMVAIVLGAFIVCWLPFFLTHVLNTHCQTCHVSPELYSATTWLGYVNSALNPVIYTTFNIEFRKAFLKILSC
Sodium-dependent noradrenaline transporter (Homo sapiens), sequence (P23975 whole entry): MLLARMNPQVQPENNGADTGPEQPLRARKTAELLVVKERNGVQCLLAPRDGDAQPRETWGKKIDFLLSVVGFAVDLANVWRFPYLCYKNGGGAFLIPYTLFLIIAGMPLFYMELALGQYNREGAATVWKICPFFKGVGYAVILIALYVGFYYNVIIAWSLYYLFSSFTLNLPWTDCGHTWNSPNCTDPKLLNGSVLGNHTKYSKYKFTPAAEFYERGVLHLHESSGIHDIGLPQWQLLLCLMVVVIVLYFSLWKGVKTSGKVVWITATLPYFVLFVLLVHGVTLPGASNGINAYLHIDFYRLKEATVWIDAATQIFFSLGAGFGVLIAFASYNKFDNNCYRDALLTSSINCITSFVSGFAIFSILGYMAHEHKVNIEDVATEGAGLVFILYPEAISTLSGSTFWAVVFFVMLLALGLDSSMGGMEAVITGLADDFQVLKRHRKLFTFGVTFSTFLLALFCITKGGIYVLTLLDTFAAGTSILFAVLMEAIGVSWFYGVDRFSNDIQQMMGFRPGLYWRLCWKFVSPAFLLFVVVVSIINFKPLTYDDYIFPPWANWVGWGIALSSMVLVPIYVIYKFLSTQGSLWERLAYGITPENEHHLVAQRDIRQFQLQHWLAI
Delta-type opioid receptor (Homo sapiens), sequence (P41143 whole entry): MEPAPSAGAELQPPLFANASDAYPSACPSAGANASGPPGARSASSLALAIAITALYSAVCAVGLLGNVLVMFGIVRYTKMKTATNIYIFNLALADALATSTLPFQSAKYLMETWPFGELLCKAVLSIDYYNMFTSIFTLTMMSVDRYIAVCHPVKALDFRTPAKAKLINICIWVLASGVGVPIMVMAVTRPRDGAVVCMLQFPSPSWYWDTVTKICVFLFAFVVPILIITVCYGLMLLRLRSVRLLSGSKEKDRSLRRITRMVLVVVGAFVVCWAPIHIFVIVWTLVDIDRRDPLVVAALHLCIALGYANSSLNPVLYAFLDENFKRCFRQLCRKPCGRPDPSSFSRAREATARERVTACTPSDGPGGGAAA
5-hydroxytryptamine receptor 2A (Homo sapiens), sequence (P28223 whole entry): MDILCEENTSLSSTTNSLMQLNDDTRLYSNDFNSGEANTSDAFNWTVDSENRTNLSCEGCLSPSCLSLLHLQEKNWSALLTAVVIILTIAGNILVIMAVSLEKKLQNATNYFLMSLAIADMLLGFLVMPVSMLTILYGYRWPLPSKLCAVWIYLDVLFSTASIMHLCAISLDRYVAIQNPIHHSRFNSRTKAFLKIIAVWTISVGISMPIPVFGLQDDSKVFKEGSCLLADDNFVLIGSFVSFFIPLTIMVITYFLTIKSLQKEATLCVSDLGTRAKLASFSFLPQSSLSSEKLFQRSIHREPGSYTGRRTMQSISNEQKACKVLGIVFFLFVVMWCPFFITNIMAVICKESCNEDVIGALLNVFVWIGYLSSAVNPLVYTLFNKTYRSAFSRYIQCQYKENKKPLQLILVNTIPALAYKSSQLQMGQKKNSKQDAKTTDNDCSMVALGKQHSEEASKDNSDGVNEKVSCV
Beta-2 adrenergic receptor (Homo sapiens), sequence (P07550 whole entry, looked up): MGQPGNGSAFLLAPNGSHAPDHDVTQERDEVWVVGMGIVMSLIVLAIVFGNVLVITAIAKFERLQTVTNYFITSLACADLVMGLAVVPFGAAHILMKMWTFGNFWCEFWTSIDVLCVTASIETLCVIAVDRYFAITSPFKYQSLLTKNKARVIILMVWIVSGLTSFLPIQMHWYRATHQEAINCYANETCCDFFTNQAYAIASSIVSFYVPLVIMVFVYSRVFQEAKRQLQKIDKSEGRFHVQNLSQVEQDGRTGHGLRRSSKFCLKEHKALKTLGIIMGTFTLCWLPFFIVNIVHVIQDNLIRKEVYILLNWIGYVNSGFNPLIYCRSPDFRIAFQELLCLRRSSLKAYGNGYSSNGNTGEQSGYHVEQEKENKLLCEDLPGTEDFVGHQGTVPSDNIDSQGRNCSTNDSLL
Sigma non-opioid intracellular receptor 1 (Homo sapiens), sequence (Q99720 whole entry): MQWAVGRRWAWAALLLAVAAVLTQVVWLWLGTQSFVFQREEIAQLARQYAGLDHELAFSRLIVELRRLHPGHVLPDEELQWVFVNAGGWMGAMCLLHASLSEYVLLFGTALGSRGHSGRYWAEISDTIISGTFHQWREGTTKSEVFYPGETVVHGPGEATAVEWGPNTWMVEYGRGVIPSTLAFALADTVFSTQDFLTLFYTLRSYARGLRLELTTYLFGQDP

Turning to `CCn1c(CNC(=O)c2ncc(C)nc2N)[n+](CC)c2ccc(C(=O)N(C)CN(C)C)cc21`, the residual activity in test [1] is 82%; in test [2], 111%; in test [3], 94%; in [4], 97%.

For `CCn1c(CNC(=O)c2nc(Cl)cnc2N)[n+](CC)c2ccc(C(=O)N(C)CCN(C)C)cc21`, the inhibition in test [5] was 1.01%; in test [7], 20%; in test [8], 25.3%; in test [9] it was 44.6%; in test [10], -1.15%; in test [12], 7.09%. For the same molecule, the inhibition was 8.37% in [13]; -7.54% in test [14]; -1.19% in [15]; -0.91% in [16]; 7.07% in [18]; -5.7% in test [20]. Besides, the inhibition in test [21] is -8.76%; in [22] it was 11%; in [23] it was 3.99%; in test [24], 8.95%; in test [25], 7.03%. Also, the residual activity was 99% in test [6]; 91% in test [11]; 113% in test [17]; 99.6% in test [19]; 96% in test [26]. In addition, the Ki at Histamine H3 receptor (read-out: Ki) was 257 nM; at Histamine H3 receptor (read-out: pKi (converted)), 219 nM.

Source of the values: ChEMBL document CHEMBL5303762, “Data for DCP probe BI-8668” (2023).
